Test results: patent US9512107B2, “Therapeutically active compositions and their methods of use” (Agios Pharmaceuticals, Inc., priority 2012, dated 2016)

Legend:
[1] = system: U87MG pLVX-IDH2 R140Q-neo cells; assay: U87MG pLVX-IDH2 R140Q-neo cell based assay, 2-HG in media by LC-MS at 48 hours; conditions: Homo sapiens, U-87 MG
Method in brief: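 U87MG cells stably expressing IDH2 R140Q were seeded overnight, then exposed to compound at 0.2% final DMSO at 37 °C, 5% CO2. 2-HG in the medium was quantified by LC-MS at 48 h. Growth inhibition was read by CellTiter-Glo luminescence at 72 h.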

IDH2 R140Q = molecular target: T1, IDH2 R140Q (Homo sapiens, UniProt P48735, R140Q); assay: IDH2 R140Q enzymatic assay (cofactor depletion, similar format); assay type: biochemical; conditions: read-out: Enz R140Q
T1 sequence (P48735 40-452 R140Q): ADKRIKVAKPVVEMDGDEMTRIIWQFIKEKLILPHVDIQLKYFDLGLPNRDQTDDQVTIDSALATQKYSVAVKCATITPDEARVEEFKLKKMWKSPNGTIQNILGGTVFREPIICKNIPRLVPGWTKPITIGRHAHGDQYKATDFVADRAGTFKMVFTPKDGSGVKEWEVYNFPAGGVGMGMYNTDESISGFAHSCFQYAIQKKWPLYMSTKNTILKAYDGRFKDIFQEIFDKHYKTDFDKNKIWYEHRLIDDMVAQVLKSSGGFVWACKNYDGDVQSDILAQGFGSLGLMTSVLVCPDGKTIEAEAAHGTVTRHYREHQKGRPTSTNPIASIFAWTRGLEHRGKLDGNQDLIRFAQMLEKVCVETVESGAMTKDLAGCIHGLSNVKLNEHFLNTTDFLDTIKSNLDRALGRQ

| SMILES | IC50 [1] | IC50 (IDH2 R140Q) |
| --- | --- | --- |
| CC(C)(O)CNc1nc(Nc2ccnc(F)c2)nc(-c2cccc(Cl)n2)n1 [Compound 368, 1-(4-(6-chloropyridin-2-yl)-6-(2-fluoropyridin-4-ylamino)-1,3,5-triazin-2-ylamino)-2-methylpropan-2-ol] | < 100 nM | 1000 to 10000 nM |
| CC(C)Nc1nc(Nc2ccnc(C#N)c2)nc(-c2ccccc2F)n1 [Compound 369, 4-(4-(2-fluorophenyl)-6-(isopropylamino)-1,3,5-triazin-2-ylamino)picolinonitrile] | < 100 nM | < 100 nM |
| CC(C)Nc1nc(Nc2ccnc(C(F)(F)F)c2)nc(-c2ccccc2F)n1 [Compound 370, 6-(2-fluorophenyl)-N^2-isopropyl-N^4-(2-(trifluoromethyl)pyridin-4-yl)-1,3,5-triazine-2,4-diamine] | < 100 nM | < 100 nM |
| CC(C)Nc1nc(Nc2ccnc(F)c2)nc(-c2ccccc2F)n1 [Compound 371, 6-(2-fluorophenyl)-N^2-(2-fluoropyridin-4-yl)-N^4-isopropyl-1,3,5-triazine-2,4-diamine] | < 100 nM | < 100 nM |
| CC(C)Nc1nc(Nc2cccc(S(=O)(=O)N3CCC3)c2)nc(-c2ccccc2)n1 [Compound 376, N^2-(3-(azetidin-1-ylsulfonyl)phenyl)-N^4-isopropyl-6-phenyl-1,3,5-triazine-2,4-diamine] | < 100 nM | 100 to 1000 nM |
| Fc1cc(Nc2nc(NC3COC3)nc(-c3cccc(C(F)(F)F)n3)n2)ccn1 [Compound 377, N^2-(2-fluoropyridin-4-yl)-N^4-(oxetan-3-yl)-6-(6-(trifluoromethyl)pyridin-2-yl)-1,3,5-triazine-2,4-diamine] | < 100 nM | 100 to 1000 nM |
| FC(F)(F)c1cc(Nc2nc(NC3COC3)nc(-c3cccc(C(F)(F)F)n3)n2)ccn1 [Compound 378, N^2-(oxetan-3-yl)-6-(6-(trifluoromethyl)pyridin-2-yl)-N^4-(2-(trifluoromethyl)pyridin-4-yl)-1,3,5-triazine-2,4-diamine] | < 100 nM | 100 to 1000 nM |
| FC(F)(F)c1cncc(Nc2nc(NC3COC3)nc(-c3cccc(C(F)(F)F)n3)n2)c1 [Compound 379, N^2-(oxetan-3-yl)-6-(6-(trifluoromethyl)pyridin-2-yl)-N^4-(5-(trifluoromethyl)pyridin-3-yl)-1,3,5-triazine-2,4-diamine] | < 100 nM | 100 to 1000 nM |
| Fc1ccc(Nc2nc(NC3COC3)nc(-c3cccc(C(F)(F)F)n3)n2)cn1 [Compound 380, N^2-(6-fluoropyridin-3-yl)-N^4-(oxetan-3-yl)-6-(6-(trifluoromethyl)pyridin-2-yl)-1,3,5-triazine-2,4-diamine] | 100 to 1000 nM | 100 to 1000 nM |
| Fc1cncc(Nc2nc(NC3COC3)nc(-c3cccc(C(F)(F)F)n3)n2)c1 [Compound 381, N^2-(5-fluoropyridin-3-yl)-N^4-(oxetan-3-yl)-6-(6-(trifluoromethyl)pyridin-2-yl)-1,3,5-triazine-2,4-diamine] | < 100 nM | 100 to 1000 nM |
| CC(C)Nc1nc(Nc2cncc(C#N)c2)nc(-c2cccc(Cl)n2)n1 [Compound 382, 5-(4-(6-chloropyridin-2-yl)-6-(isopropylamino)-1,3,5-triazin-2-ylamino)nicotinonitrile] | < 100 nM | 100 to 1000 nM |
| CC(C)Nc1nc(Nc2cncc(F)c2)nc(-c2cccc(Cl)n2)n1 [Compound 383, 6-(6-chloropyridin-2-yl)-N^2-(5-fluoropyridin-3-yl)-N^4-isopropyl-1,3,5-triazine-2,4-diamine] | < 100 nM | 100 to 1000 nM |
| CC(C)Nc1nc(Nc2ccnc(F)c2)nc(-c2cccc(Cl)n2)n1 [Compound 384, 6-(6-chloropyridin-2-yl)-N^2-(2-fluoropyridin-4-yl)-N^4-isopropyl-1,3,5-triazine-2,4-diamine] | < 100 nM | 100 to 1000 nM |
| CC(C)(O)CNc1nc(Nc2ccc(F)nc2)nc(-c2cccc(C(F)(F)F)n2)n1 [Compound 385, 1-(4-(6-fluoropyridin-3-ylamino)-6-(6-(trifluoromethyl)pyridin-2-yl)-1,3,5-triazin-2-ylamino)-2-methylpropan-2-ol] | 100 to 1000 nM | 1000 to 10000 nM |
| CC(C)Nc1nc(Nc2ccc(F)nc2)nc(-c2ccccc2F)n1 [Compound 387, 6-(2-fluorophenyl)-N^2-(6-fluoropyridin-3-yl)-N^4-isopropyl-1,3,5-triazine-2,4-diamine] | < 100 nM | < 100 nM |
| CC(C)(O)CNc1nc(Nc2ccc(F)nc2)nc(-c2cccc(Cl)n2)n1 [Compound 388, 1-(4-(6-chloropyridin-2-yl)-6-(6-fluoropyridin-3-ylamino)-1,3,5-triazin-2-ylamino)-2-methylpropan-2-ol] | 100 to 1000 nM | 1000 to 10000 nM |

| SMILES | IC50 [1] | IC50 (IDH2 R140Q) |
| --- | --- | --- |
| CC(O)CNc1nc(Nc2ccnc(C(F)(F)F)c2)nc(-c2cccc(Cl)n2)n1 (centres unmarked) [Compound 389, 1-(4-(6-chloropyridin-2-yl)-6-(2-(trifluoromethyl)pyridin-4-ylamino)-1,3,5-triazin-2-ylamino)propan-2-ol] | < 100 nM | 1000 to 10000 nM |
| CC(C)(O)CNc1nc(Nc2cncc(F)c2)nc(-c2cccc(Cl)n2)n1 [Compound 390, 1-(4-(6-chloropyridin-2-yl)-6-(5-fluoropyridin-3-ylamino)-1,3,5-triazin-2-ylamino)-2-methylpropan-2-ol] | 100 to 1000 nM | 1000 to 10000 nM |
| CC(C)(O)CNc1nc(Nc2ccnc(C(F)(F)F)c2)nc(-c2cccc(Cl)n2)n1 [Compound 391, 1-(4-(6-chloropyridin-2-yl)-6-(2-(trifluoromethyl)pyridin-4-ylamino)-1,3,5-triazin-2-ylamino)-2-methylpropan-2-ol] | < 100 nM | 100 to 1000 nM |
| CC(C)(O)CNc1nc(Nc2cncc(C(F)(F)F)c2)nc(-c2ccccc2F)n1 [Compound 392, 1-(4-(2-fluorophenyl)-6-(5-(trifluoromethyl)pyridin-3-ylamino)-1,3,5-triazin-2-ylamino)-2-methylpropan-2-ol] | < 100 nM | 100 to 1000 nM |
| Fc1cc(Nc2nc(NC3COC3)nc(-c3cccc(Cl)n3)n2)ccn1 [Compound 393, 6-(6-chloropyridin-2-yl)-N^2-(2-fluoropyridin-4-yl)-N^4-(oxetan-3-yl)-1,3,5-triazine-2,4-diamine] | < 100 nM | 100 to 1000 nM |
| CC(C)Nc1nc(Nc2cncc(C(F)(F)F)c2)nc(-c2cccc(Cl)n2)n1 [Compound 394, 6-(6-chloropyridin-2-yl)-N^2-isopropyl-N4-(5-(trifluoromethyl)pyridin-3-yl)-1,3,5-triazine-2,4-diamine] | < 100 nM | < 100 nM |
| CC(C)Nc1nc(Nc2cccc(S(C)(=O)=O)c2)nc(-c2cccc(C(C)(F)F)n2)n1 [Compound 395, 6-(6-(1,1-difluoroethyl)pyridin-2-yl)-N^2-isopropyl-N^4-(3-(methylsulfonyl)phenyl)-1,3,5-triazine-2,4-diamine] | < 100 nM | 100 to 1000 nM |
| CC(C)Nc1nc(Nc2ccnc(C(F)(F)F)c2)nc(-c2cccc(Cl)n2)n1 [Compound 396, 6-(6-chloropyridin-2-yl)-N^2-isopropyl-N4-(2-(trifluoromethyl)pyridin-4-yl)-1,3,5-triazine-2,4-diamine] | < 100 nM | 100 to 1000 nM |
| CC(C)Nc1nc(Nc2cccc(S(C)(=O)=O)c2)nc(-c2cccc(C3CC3)n2)n1 [Compound 397, 6-(6-cyclopropylpyridin-2-yl)-N^2-isopropyl-N^4-(3-(methylsulfonyl)phenyl)-1,3,5-triazine-2,4-diamine] | 100 to 1000 nM | 100 to 1000 nM |
| CC(C)Nc1nc(Nc2cc(F)cc(F)c2)nc(-c2cccc(N)n2)n1 [Compound 398, 6-(6-aminopyridin-2-yl)-N^2-(3,5-difluorophenyl)-N^4-isopropyl-1,3,5-triazine-2,4-diamine] | < 100 nM | < 100 nM |
| CC(C)CNc1nc(Nc2cncc(F)c2)nc(-c2cccc(Cl)n2)n1 [Compound 399, 6-(6-chloropyridin-2-yl)-N^2-(5-fluoropyridin-3-yl)-N^4-isobutyl-1,3,5-triazine-2,4-diamine] | < 100 nM | 100 to 1000 nM |
| CC(C)Nc1nc(Nc2cccc(S(=O)(=O)N3CCC3)c2)nc(-c2cccc(Cl)n2)n1 [Compound 400, N^2-(3-(azetidin-1-ylsulfonyl)phenyl)-6-(6-chloropyridin-2-yl)-N^4-isopropyl-1,3,5-triazine-2,4-diamine] | < 100 nM | 100 to 1000 nM |
| CC(C)Nc1nc(Nc2cncc(C#N)c2)nc(-c2cccc(C(F)(F)F)n2)n1 [Compound 401, 5-(4-(isopropylamino)-6-(6-(trifluoromethyl)pyridin-2-yl)-1,3,5-triazin-2-ylamino)nicotinonitrile] | < 100 nM | 100 to 1000 nM |
| Fc1cc(Nc2nc(NCC3CCCO3)nc(-c3cccc(C(F)(F)F)n3)n2)ccn1 (centres unmarked) [Compound 402, N^2-(2-fluoropyridin-4-yl)-N^4-((tetrahydrofuran-2-yl)methyl)-6-(6-(trifluoromethyl)pyridin-2-yl)-1,3,5-triazine-2,4-diamine] | < 100 nM | 100 to 1000 nM |
| N#Cc1cc(Nc2nc(NCC3CCCO3)nc(-c3cccc(C(F)(F)F)n3)n2)ccn1 (centres unmarked) [Compound 403, 4-(4-((tetrahydrofuran-2-yl)methylamino)-6-(6-(trifluoromethyl)pyridin-2-yl)-1,3,5-triazin-2-ylamino)picolinonitrile] | < 100 nM | 100 to 1000 nM |
